What was measured:
[1] = molecular target: T1, Corticotropin-releasing factor receptor 2 (Homo sapiens, UniProt Q13324)
T1 sequence (Q13324 whole entry): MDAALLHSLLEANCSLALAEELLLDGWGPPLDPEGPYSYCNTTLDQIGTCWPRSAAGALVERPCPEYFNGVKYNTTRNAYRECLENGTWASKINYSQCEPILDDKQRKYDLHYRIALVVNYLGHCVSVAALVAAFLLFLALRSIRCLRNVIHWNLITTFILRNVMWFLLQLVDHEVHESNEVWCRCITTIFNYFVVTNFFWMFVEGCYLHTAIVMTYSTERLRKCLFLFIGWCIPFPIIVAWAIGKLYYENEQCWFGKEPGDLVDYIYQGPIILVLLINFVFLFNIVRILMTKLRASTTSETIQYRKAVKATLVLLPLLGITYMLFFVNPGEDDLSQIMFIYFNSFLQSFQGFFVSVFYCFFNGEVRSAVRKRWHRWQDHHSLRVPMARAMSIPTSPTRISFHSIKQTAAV

Glucagon receptor = Glucagon receptor (Homo sapiens, UniProt P47871)
Histamine H2 receptor = Histamine H2 receptor (Homo sapiens, UniProt P25021)
[2] = molecular target: T2, Neuropeptide Y receptor type 2 (Homo sapiens, UniProt P49146)
T2 sequence (P49146 whole entry): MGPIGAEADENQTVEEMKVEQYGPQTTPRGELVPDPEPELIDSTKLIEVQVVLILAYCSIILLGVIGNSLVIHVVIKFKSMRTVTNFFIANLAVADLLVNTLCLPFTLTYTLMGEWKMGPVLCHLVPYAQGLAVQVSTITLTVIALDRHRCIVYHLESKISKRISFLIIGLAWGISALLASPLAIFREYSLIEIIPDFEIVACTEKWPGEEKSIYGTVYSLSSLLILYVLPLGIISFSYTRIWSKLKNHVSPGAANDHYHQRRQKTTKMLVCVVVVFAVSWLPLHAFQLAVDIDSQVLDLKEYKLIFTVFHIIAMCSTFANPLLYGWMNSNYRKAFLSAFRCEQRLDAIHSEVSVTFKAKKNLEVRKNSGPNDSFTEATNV

[3] = molecular target: T3, Alpha-2A adrenergic receptor (Homo sapiens, UniProt P08913)
T3 sequence (P08913 whole entry): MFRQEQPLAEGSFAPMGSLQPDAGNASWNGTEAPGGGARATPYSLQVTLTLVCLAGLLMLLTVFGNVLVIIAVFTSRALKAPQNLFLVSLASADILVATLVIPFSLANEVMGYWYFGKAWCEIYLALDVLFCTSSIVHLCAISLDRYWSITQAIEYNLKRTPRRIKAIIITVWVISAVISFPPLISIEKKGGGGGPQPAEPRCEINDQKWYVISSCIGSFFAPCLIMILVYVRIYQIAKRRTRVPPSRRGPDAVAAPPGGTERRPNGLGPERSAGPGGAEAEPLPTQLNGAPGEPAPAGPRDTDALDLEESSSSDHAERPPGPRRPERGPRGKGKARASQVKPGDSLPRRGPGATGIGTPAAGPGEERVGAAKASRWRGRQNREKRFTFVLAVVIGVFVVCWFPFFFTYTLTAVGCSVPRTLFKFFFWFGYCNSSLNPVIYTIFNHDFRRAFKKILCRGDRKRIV

[4] = molecular target: T4, Muscarinic acetylcholine receptor M2 (Homo sapiens, UniProt P08172)
T4 sequence (P08172 whole entry): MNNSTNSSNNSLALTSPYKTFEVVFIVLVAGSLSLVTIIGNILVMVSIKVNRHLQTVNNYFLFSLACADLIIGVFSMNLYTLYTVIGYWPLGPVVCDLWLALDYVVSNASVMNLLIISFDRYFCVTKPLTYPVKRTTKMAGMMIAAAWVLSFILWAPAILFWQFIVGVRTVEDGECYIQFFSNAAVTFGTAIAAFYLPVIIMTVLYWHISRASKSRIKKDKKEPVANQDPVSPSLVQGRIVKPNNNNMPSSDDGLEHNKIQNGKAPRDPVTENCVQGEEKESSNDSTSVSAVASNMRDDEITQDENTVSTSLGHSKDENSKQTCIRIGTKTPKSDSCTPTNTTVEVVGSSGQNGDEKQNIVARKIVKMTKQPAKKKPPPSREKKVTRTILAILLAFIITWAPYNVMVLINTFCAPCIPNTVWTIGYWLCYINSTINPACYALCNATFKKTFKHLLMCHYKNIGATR

[5] = molecular target: Gamma-aminobutyric acid receptor subunit alpha-1/alpha-2/beta-2/gamma-2 (Homo sapiens, UniProt P14867+P18507+P47869+P47870); assay type: functional, cell-based
Androgen receptor = molecular target: T5, Androgen receptor (Rattus norvegicus, UniProt P15207); assay type: functional
T5 sequence (P15207 whole entry): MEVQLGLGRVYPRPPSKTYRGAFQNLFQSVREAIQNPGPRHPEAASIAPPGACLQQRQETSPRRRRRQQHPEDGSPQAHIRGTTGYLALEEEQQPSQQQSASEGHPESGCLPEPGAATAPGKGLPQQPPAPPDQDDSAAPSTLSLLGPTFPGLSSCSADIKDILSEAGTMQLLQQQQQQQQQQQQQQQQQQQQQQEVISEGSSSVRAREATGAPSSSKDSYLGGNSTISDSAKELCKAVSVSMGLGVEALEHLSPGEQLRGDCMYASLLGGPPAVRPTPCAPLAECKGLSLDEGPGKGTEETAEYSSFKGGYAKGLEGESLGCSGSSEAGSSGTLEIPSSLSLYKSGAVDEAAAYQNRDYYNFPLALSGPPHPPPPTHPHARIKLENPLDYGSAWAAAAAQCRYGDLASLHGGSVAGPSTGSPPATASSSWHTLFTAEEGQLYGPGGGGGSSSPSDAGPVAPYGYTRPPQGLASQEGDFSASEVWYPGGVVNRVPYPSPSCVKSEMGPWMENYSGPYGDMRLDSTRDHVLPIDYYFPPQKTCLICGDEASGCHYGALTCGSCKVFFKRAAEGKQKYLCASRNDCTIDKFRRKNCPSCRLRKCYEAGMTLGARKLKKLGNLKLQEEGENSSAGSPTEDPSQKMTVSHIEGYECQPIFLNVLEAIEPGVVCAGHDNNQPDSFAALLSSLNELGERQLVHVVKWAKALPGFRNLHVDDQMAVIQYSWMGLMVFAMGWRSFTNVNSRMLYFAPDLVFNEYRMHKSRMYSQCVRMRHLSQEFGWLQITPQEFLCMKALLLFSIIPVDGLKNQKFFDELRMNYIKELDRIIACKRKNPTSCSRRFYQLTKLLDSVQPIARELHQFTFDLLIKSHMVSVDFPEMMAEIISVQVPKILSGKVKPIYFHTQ

Estrogen receptor beta = Estrogen receptor beta (Homo sapiens, UniProt Q92731)
Also: assay procedure not described here.

Gamma-aminobutyric acid receptor subunit alpha-1/alpha-2/beta-2/gamma-2, sequence (P14867 whole entry): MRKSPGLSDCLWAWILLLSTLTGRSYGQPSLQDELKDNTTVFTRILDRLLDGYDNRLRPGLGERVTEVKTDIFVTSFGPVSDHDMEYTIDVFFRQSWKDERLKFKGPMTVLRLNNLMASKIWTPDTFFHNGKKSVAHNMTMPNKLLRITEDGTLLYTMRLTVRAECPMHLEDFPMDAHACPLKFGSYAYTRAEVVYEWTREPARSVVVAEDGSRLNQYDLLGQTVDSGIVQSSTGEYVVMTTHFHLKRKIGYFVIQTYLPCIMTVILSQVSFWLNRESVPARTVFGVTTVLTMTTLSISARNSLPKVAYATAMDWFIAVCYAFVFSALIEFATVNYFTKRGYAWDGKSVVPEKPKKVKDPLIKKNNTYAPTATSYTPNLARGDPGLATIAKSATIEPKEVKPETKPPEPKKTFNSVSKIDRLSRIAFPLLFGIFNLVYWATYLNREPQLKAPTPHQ
Gamma-aminobutyric acid receptor subunit alpha-1/alpha-2/beta-2/gamma-2, sequence (P47870 whole entry): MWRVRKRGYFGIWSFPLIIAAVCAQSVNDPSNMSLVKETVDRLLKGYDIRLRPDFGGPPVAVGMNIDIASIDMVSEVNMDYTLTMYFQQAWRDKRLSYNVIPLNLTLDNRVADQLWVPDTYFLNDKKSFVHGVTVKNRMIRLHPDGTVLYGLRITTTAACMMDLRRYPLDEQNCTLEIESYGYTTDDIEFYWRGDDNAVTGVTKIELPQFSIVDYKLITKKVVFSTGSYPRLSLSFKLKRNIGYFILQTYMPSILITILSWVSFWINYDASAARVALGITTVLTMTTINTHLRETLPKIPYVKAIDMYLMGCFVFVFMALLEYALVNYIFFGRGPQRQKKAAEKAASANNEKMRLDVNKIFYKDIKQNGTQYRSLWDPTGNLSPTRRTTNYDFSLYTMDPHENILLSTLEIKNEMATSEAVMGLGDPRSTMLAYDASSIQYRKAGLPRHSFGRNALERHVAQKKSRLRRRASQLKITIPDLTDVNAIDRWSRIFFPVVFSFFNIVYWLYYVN
Gamma-aminobutyric acid receptor subunit alpha-1/alpha-2/beta-2/gamma-2, sequence (P18507 whole entry): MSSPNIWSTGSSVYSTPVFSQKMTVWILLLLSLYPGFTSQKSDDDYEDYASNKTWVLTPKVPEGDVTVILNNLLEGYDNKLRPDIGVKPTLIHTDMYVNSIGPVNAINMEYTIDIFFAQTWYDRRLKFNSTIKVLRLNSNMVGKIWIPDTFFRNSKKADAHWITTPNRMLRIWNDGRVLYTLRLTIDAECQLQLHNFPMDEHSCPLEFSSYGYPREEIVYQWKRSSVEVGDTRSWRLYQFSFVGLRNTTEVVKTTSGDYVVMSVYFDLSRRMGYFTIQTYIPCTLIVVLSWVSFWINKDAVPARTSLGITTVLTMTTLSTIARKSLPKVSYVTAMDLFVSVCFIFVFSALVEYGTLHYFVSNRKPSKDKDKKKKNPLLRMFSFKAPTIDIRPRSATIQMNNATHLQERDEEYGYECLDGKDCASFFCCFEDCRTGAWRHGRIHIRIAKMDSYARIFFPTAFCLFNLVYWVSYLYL
Gamma-aminobutyric acid receptor subunit alpha-1/alpha-2/beta-2/gamma-2, sequence (P47869 whole entry): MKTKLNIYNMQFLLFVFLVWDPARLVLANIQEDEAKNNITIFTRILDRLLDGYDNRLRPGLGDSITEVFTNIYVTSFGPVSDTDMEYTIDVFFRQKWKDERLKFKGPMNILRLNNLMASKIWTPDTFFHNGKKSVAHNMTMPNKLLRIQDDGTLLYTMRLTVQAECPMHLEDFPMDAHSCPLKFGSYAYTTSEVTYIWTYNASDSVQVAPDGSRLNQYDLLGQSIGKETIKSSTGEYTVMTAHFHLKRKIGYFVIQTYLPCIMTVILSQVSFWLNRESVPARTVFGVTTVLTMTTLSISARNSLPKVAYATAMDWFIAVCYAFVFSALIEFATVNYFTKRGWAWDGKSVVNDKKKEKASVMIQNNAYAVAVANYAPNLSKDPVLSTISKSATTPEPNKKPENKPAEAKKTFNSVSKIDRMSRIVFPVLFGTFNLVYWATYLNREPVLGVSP
Estrogen receptor beta, sequence (Q92731 whole entry): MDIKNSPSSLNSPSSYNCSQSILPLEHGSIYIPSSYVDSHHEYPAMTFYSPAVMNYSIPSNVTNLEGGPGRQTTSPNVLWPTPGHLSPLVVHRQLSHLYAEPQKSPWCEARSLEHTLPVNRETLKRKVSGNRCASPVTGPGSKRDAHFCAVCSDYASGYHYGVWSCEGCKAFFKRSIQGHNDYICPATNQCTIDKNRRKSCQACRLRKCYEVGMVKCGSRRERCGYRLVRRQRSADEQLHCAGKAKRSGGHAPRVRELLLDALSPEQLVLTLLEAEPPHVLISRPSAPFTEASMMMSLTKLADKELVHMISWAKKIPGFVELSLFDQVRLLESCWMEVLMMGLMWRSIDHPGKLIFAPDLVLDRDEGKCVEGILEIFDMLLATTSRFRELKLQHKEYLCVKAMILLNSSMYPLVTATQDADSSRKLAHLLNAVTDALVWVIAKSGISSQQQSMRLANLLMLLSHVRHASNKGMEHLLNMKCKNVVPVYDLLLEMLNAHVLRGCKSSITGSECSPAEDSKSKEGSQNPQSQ
Glucagon receptor, sequence (P47871 whole entry): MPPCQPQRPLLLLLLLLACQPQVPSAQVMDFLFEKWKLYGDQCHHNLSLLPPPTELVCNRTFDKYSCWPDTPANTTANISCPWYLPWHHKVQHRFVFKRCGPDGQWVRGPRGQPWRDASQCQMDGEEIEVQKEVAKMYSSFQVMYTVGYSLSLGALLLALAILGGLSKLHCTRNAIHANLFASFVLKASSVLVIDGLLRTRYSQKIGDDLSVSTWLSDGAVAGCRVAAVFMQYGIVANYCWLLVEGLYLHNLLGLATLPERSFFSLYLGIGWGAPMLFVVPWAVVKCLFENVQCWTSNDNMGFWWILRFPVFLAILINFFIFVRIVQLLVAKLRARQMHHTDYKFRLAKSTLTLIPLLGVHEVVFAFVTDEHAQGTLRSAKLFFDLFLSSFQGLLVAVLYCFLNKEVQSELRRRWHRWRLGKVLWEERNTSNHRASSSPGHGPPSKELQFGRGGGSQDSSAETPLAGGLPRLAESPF
Histamine H2 receptor, sequence (P25021 whole entry): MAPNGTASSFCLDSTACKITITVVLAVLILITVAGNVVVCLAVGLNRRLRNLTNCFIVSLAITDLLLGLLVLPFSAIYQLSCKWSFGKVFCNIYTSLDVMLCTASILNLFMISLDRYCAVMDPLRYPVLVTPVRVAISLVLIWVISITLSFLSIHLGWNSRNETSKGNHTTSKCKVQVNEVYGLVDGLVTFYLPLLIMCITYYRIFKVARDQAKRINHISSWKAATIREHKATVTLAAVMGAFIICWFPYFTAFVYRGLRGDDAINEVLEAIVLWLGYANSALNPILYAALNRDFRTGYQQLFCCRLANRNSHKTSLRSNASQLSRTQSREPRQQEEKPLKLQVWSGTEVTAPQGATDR

CCN(CC)C(C)C(=O)c1ccccc1 (stereo not drawn) [DIETHYLPROPION]
AC50 [1]: > 30 µM | AC50 (Glucagon receptor): > 30 µM | AC50 (Histamine H2 receptor): > 10 µM | AC50 [2]: > 30 µM | AC50 [3]: 4.46 µM | AC50 [4]: > 10 µM

CCN1C(=O)NC(c2ccccc2)C1=O (stereo not drawn) [ETHOTOIN]
AC50 [5]: > 30 µM

CC(=O)OCC(=O)[C@@]1(O)CC[C@H]2[C@@H]3CCC4=CC(=O)CC[C@]4(C)[C@@]3(F)[C@@H](O)C[C@@]21C [FLUDROCORTISONE ACETATE]
AC50 (Androgen receptor): > 30 µM

Cc1ccc(S(=O)(=O)NC(=O)N[C@H]2[C@H]3CC[C@@](C)([C@H]2O)C3(C)C)cc1 [GLIBORNURIDE]
AC50 (Androgen receptor): > 30 µM

N=C(N)NC(=O)Cc1c(Cl)cccc1Cl [GUANFACINE]
AC50 [5]: > 30 µM

CC1Cc2ccccc2N1NC(=O)c1ccc(Cl)c(S(N)(=O)=O)c1 (stereo not drawn) [INDAPAMIDE]
AC50 [3]: > 10 µM

CN1CCC(=C2c3ccccc3CC(=O)c3sccc32)CC1 [KETOTIFEN]
AC50 [4]: 0.432 µM

CCC(=O)O[C@H](CC(=O)O)C[N+](C)(C)C [LEVOCARNITINE PROPIONATE]
AC50 (Androgen receptor): > 30 µM | AC50 [5]: > 30 µM

CCN(CC)CC(=O)Nc1c(C)cccc1C [LIDOCAINE]
AC50 [1]: > 30 µM | AC50 (Estrogen receptor beta): > 30 µM | AC50 (Glucagon receptor): > 30 µM | AC50 [2]: > 30 µM

O=C(O)c1nn(Cc2ccc(Cl)cc2Cl)c2ccccc12 [LONIDAMINE]
AC50 (Androgen receptor): > 30 µM

COC(=O)c1ccc2c(c1)NC(=O)/C2=C(\Nc1ccc(N(C)C(=O)CN2CCN(C)CC2)cc1)c1ccccc1 [NINTEDANIB]
AC50 (Androgen receptor): > 30 µM | AC50 [5]: > 30 µM

CN1CCCN=C1/C=C/c1cccc(O)c1 [OXANTEL]
AC50 (Androgen receptor): 26 µM

CC1NCCOC1c1ccccc1 (stereo not drawn) [PHENMETRAZINE]
AC50 [1]: > 30 µM | AC50 (Estrogen receptor beta): > 30 µM | AC50 (Glucagon receptor): > 30 µM | AC50 [2]: > 30 µM | AC50 [4]: > 10 µM

CC(C)(N)Cc1ccccc1 [PHENTERMINE]
AC50 [1]: > 30 µM | AC50 (Estrogen receptor beta): > 30 µM | AC50 (Glucagon receptor): > 30 µM | AC50 [2]: > 30 µM | AC50 [4]: > 10 µM

CS(=O)(=O)NC(=O)CCC/C=C\C[C@H]1C(=O)C[C@@H](O)[C@@H]1/C=C/[C@@H](O)COc1ccccc1 [SULPROSTONE]
AC50 [5]: > 30 µM

CCCCOC(=O)C(=O)Nc1cccc(-c2nnn[nH]2)c1 [TAZANOLAST]
AC50 (Androgen receptor): > 30 µM

CCCCC[C@H](O)CC[C@@H]1[C@H]2Cc3cccc(OCC(=O)O)c3C[C@H]2C[C@H]1O [TREPROSTINIL]
AC50 (Androgen receptor): > 30 µM

CN(C)CCOCC(=O)NC12CC3CC(CC(C3)C1)C2 [TROMANTADINE]
AC50 (Androgen receptor): > 30 µM

CCCCCCCC(=O)CC[C@@H]1[C@@H](C/C=C\CCCC(=O)O)[C@@H](O)C[C@H]1O [UNOPROSTONE]
AC50 (Androgen receptor): > 30 µM | AC50 [5]: > 30 µM
